Data: patent US20200078468A1, “NEUROTENSIN RECEPTOR BINDING CONJUGATES AND FORMULATIONS THEREOF” (priority 2016, published 2020)
Square brackets hold non-standard residues; d marks the D form. Peptide text beside a SMILES is read from it. * marks the point of attachment. X2 = COc1cc2cc(c1Cl)N(C)C(=O)C[C@H](OC(=O)[C@H](C)N(C)C(=O)CCS*)[C@]1(C)O[C@H]1[C@H](C)[C@@H]1C[C@@](O)(NC(=O)O1)[C@H](OC)/C=C/C=C(\C)C2; Pen = CC(C)(S)[C@H](N)C(=O)O; Tle = CC(C)(C)[C@H](N)C(=O)O

Legend:
[1] = tested on: SW48 (human colon cancer cells); assay: inhibition of SW48 cell proliferation (CellTiter Glo); type: cell-based; details: NTSR1 targeted compound; 72 hrs; read-out: SW-48 proliferation IC50
Procedure, shortened: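 Cells plated at 5,000/well and grown 24 hrs were exposed to conjugates for 72 hrs at 37° C, 5% CO2, in a ten-point three-fold series starting at 10 μM; vehicle was 0.01% DMSO. Proliferation was read by CellTiter Glo. % inhibition was taken relative to vehicle, with IC50 from four-parameter nonlinear regression.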

human NTSR1 = molecular target: T1, human NTSR1 (Homo sapiens, UniProt P30989); assay: radioligand-receptor binding assay, [125I] labeled neurotensin (Eurofins Panlabs); details: [125I] neurotensin 0.02 nM, membranes from NTSR1 expressing HEK-293 cells, 45 minute incubation, Cheng and Prusoff; read-out: NTSR1 binding Ki
T1 construct: host or cells: HEK-293 cells (membrane preparations)
T1 sequence (P30989 whole entry): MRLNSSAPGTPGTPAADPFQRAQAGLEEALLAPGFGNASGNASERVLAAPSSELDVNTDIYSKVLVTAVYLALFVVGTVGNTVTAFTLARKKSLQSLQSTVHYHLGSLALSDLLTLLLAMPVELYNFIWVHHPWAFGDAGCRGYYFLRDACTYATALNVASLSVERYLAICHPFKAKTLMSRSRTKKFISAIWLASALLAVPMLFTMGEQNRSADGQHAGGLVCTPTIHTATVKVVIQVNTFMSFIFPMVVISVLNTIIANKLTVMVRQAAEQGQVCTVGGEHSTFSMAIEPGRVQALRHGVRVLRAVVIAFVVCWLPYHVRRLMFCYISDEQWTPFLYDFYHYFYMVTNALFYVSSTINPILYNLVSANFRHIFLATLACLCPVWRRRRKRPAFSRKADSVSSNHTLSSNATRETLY
Procedure: Conjugates were assessed in an in vitro assay evaluating binding to NTSR1. A radioligand-receptor binding assay was conducted at Eurofins Panlabs (Taiwan) to determine the affinity of conjugates described herein to NTSR1. The assay measures binding of radiolabeled ligand, [^125I] labeled neurotensin, to human NTSR1 using membrane preparations from NTSR1 expressing HEK-293 cells (Human embryonic kidney cells 293). Membranes were incubated with radiolabeled neurotensin (0.02 nM) in the presence of conjugate/compound starting at a dose of either 100 nM, or 10 nM, using 3× serial dilutions to obtain a 6-pt curve. After a 45 minute incubation, membranes were filtered and washed 3× and counted to determine the remaining [^125I] neurotensin bound to the receptor. IC50 values were determined by a non-linear, least squares regression analysis using MathIQ™ (ID Business Solutions Ltd., UK). The Ki values were calculated using the equation of Cheng and Prusoff (Cheng and Prusoff, Biochem. Pharmacol. 22:3099-3108, 1973) using the observed IC50 of the tested conjugate/compound, the concentration of radioligand employed in the assay, and the historical values for the Kd of the ligand obtained at Eurofins.

Structure (SMILES)	IC50 [1] [nM]	Ki (human NTSR1) [nM]
CO[C@H]1C(=O)[C@]2(C)[C@@H](OC)C[C@H]3OC[C@@]3(OC(C)=O)[C@H]2[C@H](OC(=O)c2ccccc2)[C@]2(O)C[C@H](OC(=O)[C@H](OC(=O)CCCCCN3C(=O)CC(SC(C)(C)[C@H](NC(C)=O)C(=O)N4CCC[C@H]4C(=O)N[C@@H](CCCNC(=N)N)C(=O)N[C@@H](CCCNC(=N)N)C(=O)N4CCC[C@H]4C(=O)N[C@@H](Cc4ccc(O)cc4)C(=O)N[C@H](C(=O)N[C@@H](CC(C)C)C(=O)O)C(C)(C)C)C3=O)[C@@H](NC(=O)OC(C)(C)C)c3ccccc3)C(C)=C1C2(C)C (some centres unmarked) [Compound 4]	138	2.06
COc1cc2cc(c1Cl)N(C)C(=O)C[C@H](OC(=O)[C@H](C)N(C)C(=O)CCSSC(C)(C)[C@H](NC(C)=O)C(=O)N1CCC[C@H]1C(=O)N[C@@H](CCCNC(=N)N)C(=O)N[C@@H](CCCNC(=N)N)C(=O)N1CCC[C@H]1C(=O)N[C@@H](Cc1ccc(O)cc1)C(=O)N[C@H](C(=O)N[C@@H](CC(C)C)C(=O)O)C(C)(C)C)[C@]1(C)O[C@H]1[C@H](C)[C@@H]1C[C@@](O)(NC(=O)O1)[C@H](OC)/C=C/C=C(\C)C2 [Compound 12] (Ac-[Pen](X2)PRRPY[Tle]L-OH)	15	1.03
COc1cc2cc(c1Cl)N(C)C(=O)C[C@H](OC(=O)[C@H](C)N(C)C(=O)CCSC1CC(=O)N(CCCNC(=O)CNC(=O)[C@H](CC(C)C)NC(=O)[C@H](Cc3ccccc3)NC(=O)CNC(=O)CCCCCN3C(=O)CC(SC(C)(C)[C@H](NC(C)=O)C(=O)N4CCC[C@H]4C(=O)N[C@@H](CCCNC(=N)N)C(=O)N[C@@H](CCCNC(=N)N)C(=O)N4CCC[C@H]4C(=O)N[C@@H](Cc4ccc(O)cc4)C(=O)N[C@H](C(=O)N[C@@H](CC(C)C)C(=O)O)C(C)(C)C)C3=O)C1=O)[C@]1(C)O[C@H]1[C@H](C)[C@@H]1C[C@@](O)(NC(=O)O1)[C@H](OC)/C=C/C=C(\C)C2 (some centres unmarked) [Compound 16]	15	1.64
COc1cc2cc(c1Cl)N(C)C(=O)C[C@H](OC(=O)[C@H](C)N(C)C(=O)CCSC1CC(=O)N(CCCNC(=O)CNC(=O)[C@H](CC(C)C)NC(=O)[C@H](Cc3ccccc3)NC(=O)CNC(=O)CCCCCN3C(=O)CC(SC(C)(C)[C@H](NC(C)=O)C(=O)N4CCC[C@H]4C(=O)N[C@@H](CCCNC(=N)N)C(=O)N(C)[C@@H](CCCNC(=N)N)C(=O)N4CCC[C@H]4C(=O)N[C@@H](Cc4ccc(O)cc4)C(=O)N[C@H](C(=O)N[C@@H](CC(C)C)C(=O)O)C(C)(C)C)C3=O)C1=O)[C@]1(C)O[C@H]1[C@H](C)[C@@H]1C[C@@](O)(NC(=O)O1)[C@H](OC)/C=C/C=C(\C)C2 (some centres unmarked) [Compound 17]	3.9	10.6
COc1cc2cc(c1Cl)N(C)C(=O)C[C@H](OC(=O)[C@H](C)N(C)C(=O)CCSC1CC(=O)N(CCCNC(=O)CNC(=O)[C@H](CC(C)C)NC(=O)[C@H](Cc3ccccc3)NC(=O)CNC(=O)CCCCCN3C(=O)CC(SC(C)(C)[C@H](NC(C)=O)C(=O)N4CCC[C@H]4C(=O)N[C@@H](CCCNC(=N)N)C(=O)N(C)[C@@H](CCCNC(=N)N)C(=O)N4CCC[C@H]4C(=O)N[C@H](Cc4ccc(O)cc4)C(=O)N[C@H](C(=O)N[C@@H](CC(C)C)C(=O)O)C(C)(C)C)C3=O)C1=O)[C@]1(C)O[C@H]1[C@H](C)[C@@H]1C[C@@](O)(NC(=O)O1)[C@H](OC)/C=C/C=C(\C)C2 (some centres unmarked) [Compound 18]	36	> 100
COc1cc2cc(c1Cl)N(C)C(=O)C[C@H](OC(=O)[C@H](C)N(C)C(=O)CCSC1CC(=O)N(CCCNC(=O)CNC(=O)[C@H](CC(C)C)NC(=O)[C@H](Cc3ccccc3)NC(=O)CNC(=O)CCCCCN3C(=O)CC(SC(C)(C)[C@H](NC(C)=O)C(=O)N4CCC[C@H]4C(=O)N[C@@H](CCCNC(=N)N)C(=O)N(C)[C@@H](CCCNC(=N)N)C(=O)N4CCC[C@H]4C(=O)N[C@@H](Cc4c[nH]c5ccccc45)C(=O)N[C@H](C(=O)N[C@@H](CC(C)C)C(=O)O)C(C)(C)C)C3=O)C1=O)[C@]1(C)O[C@H]1[C@H](C)[C@@H]1C[C@@](O)(NC(=O)O1)[C@H](OC)/C=C/C=C(\C)C2 (some centres unmarked) [Compound 19]	6.3	> 100
COc1cc2cc(c1Cl)N(C)C(=O)C[C@H](OC(=O)[C@H](C)N(C)C(=O)CCSC1CC(=O)N(CCCNC(=O)CNC(=O)[C@H](CC(C)C)NC(=O)[C@H](Cc3ccccc3)NC(=O)CNC(=O)CCCCCN3C(=O)CC(SC(C)(C)[C@H](NC(C)=O)C(=O)N4CCC[C@H]4C(=O)N(C)[C@@H](CCCNC(=N)N)C(=O)N[C@@H](CCCNC(=N)N)C(=O)N4CCC[C@H]4C(=O)N[C@@H](Cc4ccc(O)cc4)C(=O)N[C@H](C(=O)N[C@@H](CC(C)C)C(=O)O)C(C)(C)C)C3=O)C1=O)[C@]1(C)O[C@H]1[C@H](C)[C@@H]1C[C@@](O)(NC(=O)O1)[C@H](OC)/C=C/C=C(\C)C2 (some centres unmarked) [Compound 20]	6.8	0.93
CC[C@H](C)[C@H](NC(=O)[C@H](Cc1ccc(O)c(O)c1)NC(=O)[C@@H]1CCCN1C(=O)[C@H](CCCNC(=N)N)NC(=O)[C@@H](CCCNC(=N)N)NC(=O)[C@@H]1CCCN1C(=O)[C@H](CCCCNC(=O)CCSC1CC(=O)N(CCCCCC(=O)NCC(=O)N[C@@H](Cc2ccccc2)C(=O)N[C@@H](CC(C)C)C(=O)NCC(=O)NCCCN2C(=O)CC(SCCC(=O)N(C)[C@@H](C)C(=O)O[C@H]3CC(=O)N(C)c4cc(cc(OC)c4Cl)C/C(C)=C/C=C/[C@@H](OC)[C@@]4(O)C[C@H](OC(=O)N4)[C@@H](C)[C@@H]4O[C@@]34C)C2=O)C1=O)NC(C)=O)C(=O)N[C@@H](C[Si](C)(C)C)C(=O)O (some centres unmarked) [Compound 44]	–	0.23
CC[C@H](C)[C@H](NC(=O)[C@@H](Cc1ccc(O)cc1)NC(=O)[C@@H]1CCCN1C(=O)[C@H](CCCNC(=N)N)NC(=O)[C@@H](CCCNC(=N)N)NC(=O)[C@@H]1CCCN1C(=O)[C@H](CCCCNC(=O)CCSC1CC(=O)N(CCCCCC(=O)NCC(=O)N[C@@H](Cc2ccccc2)C(=O)N[C@@H](CC(C)C)C(=O)NCC(=O)NCCCN2C(=O)CC(SCCC(=O)N(C)[C@@H](C)C(=O)O[C@H]3CC(=O)N(C)c4cc(cc(OC)c4Cl)C/C(C)=C/C=C/[C@@H](OC)[C@@]4(O)C[C@H](OC(=O)N4)[C@@H](C)[C@@H]4O[C@@]34C)C2=O)C1=O)NC(C)=O)C(=O)N[C@@H](C[Si](C)(C)C)C(=O)O (some centres unmarked) [Compound 45]	–	> 10
CC[C@H](C)[C@H](NC(=O)[C@H](Cc1ccc(OC)c(OC)c1)NC(=O)[C@@H]1CCCN1C(=O)[C@H](CCCNC(=N)N)NC(=O)[C@@H](CCCNC(=N)N)NC(=O)[C@@H]1CCCN1C(=O)[C@H](CCCCNC(=O)CCSC1CC(=O)N(CCCCCC(=O)NCC(=O)N[C@@H](Cc2ccccc2)C(=O)N[C@@H](CC(C)C)C(=O)NCC(=O)NCCCN2C(=O)CC(SCCC(=O)N(C)[C@@H](C)C(=O)O[C@H]3CC(=O)N(C)c4cc(cc(OC)c4Cl)C/C(C)=C/C=C/[C@@H](OC)[C@@]4(O)C[C@H](OC(=O)N4)[C@@H](C)[C@@H]4O[C@@]34C)C2=O)C1=O)NC(C)=O)C(=O)N[C@@H](C[Si](C)(C)C)C(=O)O (some centres unmarked) [Compound 46]	–	> 10
CC[C@H](C)[C@H](NC(=O)[C@H](Cc1ccc(Cl)c(Cl)c1)NC(=O)[C@@H]1CCCN1C(=O)[C@H](CCCNC(=N)N)NC(=O)[C@@H](CCCNC(=N)N)NC(=O)[C@@H]1CCCN1C(=O)[C@H](CCCCNC(=O)CCSC1CC(=O)N(CCCCCC(=O)NCC(=O)N[C@@H](Cc2ccccc2)C(=O)N[C@@H](CC(C)C)C(=O)NCC(=O)NCCCN2C(=O)CC(SCCC(=O)N(C)[C@@H](C)C(=O)O[C@H]3CC(=O)N(C)c4cc(cc(OC)c4Cl)C/C(C)=C/C=C/[C@@H](OC)[C@@]4(O)C[C@H](OC(=O)N4)[C@@H](C)[C@@H]4O[C@@]34C)C2=O)C1=O)NC(C)=O)C(=O)N[C@@H](C[Si](C)(C)C)C(=O)O (some centres unmarked) [Compound 47]	–	> 10
COc1cc2cc(c1Cl)N(C)C(=O)C[C@H](OC(=O)[C@H](C)N(C)C(=O)CCSC1CC(=O)N(CCCNC(=O)CNC(=O)[C@H](CC(C)C)NC(=O)[C@H](Cc3ccccc3)NC(=O)CNC(=O)CCCCCN3C(=O)CC(SCCC(=O)NCCCC[C@H](NC(C)=O)C(=O)N4CCC[C@H]4C(=O)N[C@@H](CCCCN)C(=O)N[C@@H](CCCCN)C(=O)N4CCC[C@H]4C(=O)N[C@@H](Cc4ccc(O)cc4)C(=O)N[C@@H](C[Si](C)(C)C)C(=O)N[C@@H](C[Si](C)(C)C)C(=O)O)C3=O)C1=O)[C@]1(C)O[C@H]1[C@H](C)[C@@H]1C[C@@](O)(NC(=O)O1)[C@H](OC)/C=C/C=C(\C)C2 (some centres unmarked) [Compound 48]	–	> 10
COc1cc2cc(c1Cl)N(C)C(=O)C[C@H](OC(=O)[C@H](C)N(C)C(=O)CCSC1CC(=O)N(CCCNC(=O)CNC(=O)[C@H](CC(C)C)NC(=O)[C@H](Cc3ccccc3)NC(=O)CNC(=O)CCCCCN3C(=O)CC(SCCC(=O)NCCCC[C@H](NC(=O)c4ccc(N=[N+]=[N-])cc4)C(=O)N4CCC[C@H]4C(=O)N(C)[C@@H](CCCNC(=N)N)C(=O)N[C@@H](CCCNC(=N)N)C(=O)N4CCC[C@H]4C(=O)N[C@@H](Cc4ccc(O)cc4)C(=O)N[C@H](C(=O)N[C@@H](CC(C)C)C(=O)O)C(C)(C)C)C3=O)C1=O)[C@]1(C)O[C@H]1[C@H](C)[C@@H]1C[C@@](O)(NC(=O)O1)[C@H](OC)/C=C/C=C(\C)C2 (some centres unmarked) [Compound 49]	–	0.18
